From US20240197691A1, “TACROLIMUS COMPOSITIONS AND METHODS OF USE” (CN2 THERAPEUTICS, INC., priority 2022, published 2024)
Where “and” joins values, the source holds several entries; their conditions need not be identical. Identical values can stand only once.

Assays:
[1] = Forced degradation (thermal, acidic, basic, oxidative, UV); format: physicochemical
Description: Forced degradation of the drug product by thermal, acidic, basic, oxidative and UV stress conditions was performed. Forced degradation for the thermal, acidic and oxidative conditions were performed at 40° C., as it was anticipated that the drug would be stable under these conditions, based on its structure. UV and basic conditions were performed at ambient conditions. The drug product is most susceptible to basic stress conditions, and to a lesser extent is susceptible to UV and oxidative conditions. A summary of all the degradation peaks as a function of the stress condition can be found in Table 28.

[2] = pH 5
[3] = Gamma irradiation of Tacrolimus; format: physicochemical
Source text: In certain embodiments, the composition can be irradiated before administration to a subject. For example, at least one component of the composition, such as, for example, tacrolimus, can undergo gamma irradiation before the final composition is created or the final composition can undergo gamma irradiation. In certain embodiments, the composition can be irradiated at a dose ranging from about 1 kilo-Gray (kGy) to about 100 kGy, preferably about 10 kGy to about 75 kGy, most preferably about 15 kGy to about 40 kGy.
The composition can be irradiated at a dose ranging from about 1 kilo-Gray (kGy) to about 100 kGy, preferably about 10 kGy to about 75 kGy, most preferably about 15 kGy to about 40 kGy (Table 36).

[4] = reported; cited from earlier work
[5] = Contact angle on parafilm; format: physicochemical; conditions: 20 μL on parafilm, ambient temperature
Description: The Theta Lite Optical Tensiometer, Dynamic Contact Angle Measurement, 20 μL sample size was used to measure the contact angle of the tacrolimus compositions of parafilm of 73.50 and 73.20. The tacrolimus composition has better wettability on the hydrophobic surface of parafilm when compared to water (97.90 and 99.90).

[6] = Surface tension (pendant drop); format: physicochemical; conditions: Theta Lite Optical Tensiometer, 5 μL
Description: The Theta Lite Optical Tensiometer, Pendant drop Method, 5 μL sample size was used to measure the surface tension of the tacrolimus compositions.

In the case of `C=CC[C@@H]1/C=C(\C)C[C@H](C)C[C@H](OC)[C@H]2O[C@@](O)(C(=O)C(=O)N3CCCC[C@H]3C(=O)O[C@H](/C(C)=C/[C@@H]3CC[C@@H](O)[C@H](OC)C3)[C@H](C)[C@@H](O)CC1=O)[C@H](C)C[C@@H]2OC.O` [Tacrolimus], the “Degradant at RRT 0.52, Area %” value ([1]; Acid, 72h (40° C.)) is reported as 0.52 (0.47%), the “Degradant at RRT 1.32, Area %” value ([1]; Acid, 72h (40° C.)) is reported as 1.32 (0.09%) and the “Degradant at RRT 1.36, Area %” value ([1]; Acid, 72h (40° C.)) is reported as 1.36 (0.07%). The “Degradant at RRT 0.39, Area %” value ([1]; Base, 5 min (ambient)) was 0.39 (1.52%), the “Degradant at RRT 0.52, Area %” value ([1]; Base, 5 min (ambient)) was 0.52 (27.62%) and the “Degradant at RRT 0.79, Area %” value ([1]; Base, 5 min (ambient)) was 0.79 (0.97%). The “Degradant at RRT 1.28, Area %” value ([1]; Base, 5 min (ambient)) was 1.28 (0.20%), the “Degradant at RRT 1.32, Area %” value ([1]; Base, 5 min (ambient)) was 1.32 (3.02%) and the “Degradant at RRT 1.35, Area %” value ([1]; Base, 5 min (ambient)) was 1.35 (2.37%). The “Degradant at RRT 0.43, Area %” value ([1]; Peroxide, 48 h (40° C.)) was 0.43 (2.03%), the “Degradant at RRT 1.18, Area %” value ([1]; Peroxide, 48 h (40° C.)) was 1.18 (0.17%) and the “Degradant at RRT 1.20, Area %” value ([1]; Peroxide, 48 h (40° C.)) was 1.20 (0.05%). The “Degradant at RRT 1.25, Area %” value ([1]; Peroxide, 48 h (40° C.)) was 1.25 (0.35%), the “Degradant at RRT 1.27, Area %” value ([1]; Peroxide, 48 h (40° C.)) was 1.27 (0.16%) and the “Degradant at RRT 1.29, Area %” value ([1]; Peroxide, 48 h (40° C.)) was 1.29 (0.10%). The “Degradant at RRT 1.33, Area %” value ([1]; Peroxide, 48 h (40° C.)) was 1.33 (0.06%), the “Degradant at RRT 1.44, Area %” value ([1]; Peroxide, 48 h (40° C.)) was 1.44 (0.08%) and the “Degradant at RRT 0.43, Area %” value ([1]; Thermal, 72 h (40° C.)) was 0.43 (0.96%). The “Degradant at RRT 0.38, Area %” value ([1]; UV, 72 h (ambient)) was 0.38 (0.36%), the “Degradant at RRT 0.45, Area %” value ([1]; UV, 72 h (ambient)) was 0.45 (0.88%) and the “Degradant at RRT 0.53, Area %” value ([1]; UV, 72 h (ambient)) was 0.53 (3.07%). The “Degradant at RRT 0.58, Area %” value ([1]; UV, 72 h (ambient)) was 0.58 (0.40%), the “Degradant at RRT 1.03, Area %” value ([1]; UV, 72 h (ambient)) was 1.03 (1.30%) and the “Degradant at RRT 1.10, Area %” value ([1]; UV, 72 h (ambient)) was 1.10 (0.94%). For the same molecule, the “Degradant at RRT 1.13, Area %” value ([1]; UV, 72 h (ambient)) was 1.13 (2.90%), the “Degradant at RRT 1.17, Area %” value ([1]; UV, 72 h (ambient)) was 1.17 (5.21%) and the “Degradant at RRT 1.21, Area %” value ([1]; UV, 72 h (ambient)) was 1.21 (13.81%). The “Solubility of Tacrolimus in the supernatant” value [2] was ≤ 3.2 µg/g, the “% impurities” value ([3]; 15 kGy solid) was 0.82% and the “Total [Tac] in sample measured” value ([3]; 15 kGy solid) was 0.96 mg/g. For the same molecule, the “% impurities” value ([3]; 25 kGy solid) was 0.88%, the “Total [Tac] in sample measured” value ([3]; 25 kGy solid) was 0.92 mg/g and the “% impurities” value ([3]; 40 kGy solid) was 0.91%. The “Total [Tac] in sample measured” value ([3]; 40 kGy solid) was 0.91 mg/g, the “% impurities” value ([3]; Control solid) was 0.56% and the “Total [Tac] in sample measured” value ([3]; Control solid) was 0.99 mg/g. For the same molecule, the “log P” value [4] was 3.3.
For Water, the Contact angle [5] was 97.9 ° and 99.9 ° and the “Surface Tension” value [6] was 72 mN/m.
